The record followed here is PMC10979003, “Development and crystal structures of a potent second-generation dual degrader of BCL-2 and BCL-xL” (Nature Communications, 2024).

Structures are written as SMILES. Like-named read-outs stand apart in the source and are kept apart here. A value given as a limit tells only on which side of the number the result lay.

One assay addresses T1, HiBiT-BCL-2 (Homo sapiens, UniProt P10415).
T1 construct: endogenous in cells; host or cells: HeLa (ATCC CCL-2), CRISPR-Cas9 HiBiT knock-in clone
In words: HiBiT degradation assay, HiBiT knock-in BCL-2 HeLa cells. It is filed as cell-based. As to conditions: for Time to degrade 50% of BCL-2: 100 nM compound. Here is the method:
The Alt-R CRISPR RNA (crRNA):Alt-R trans-activating crRNA (tracrRNA) duplexes for targeting BCL-xL or BCL-2 were prepared by mixing 0.5 nmol crRNA and 0.5 nmol tracrRNA in 25 μL of Nuclease-Free Duplex Buffer (Integrated DNA Technologies, IDT) by incubation at 95 °C for 5 min and cooling to RT. Single-stranded ultramer DNA oligonucleotides (ssODN) (IDT) were used as the homology directed repair (HDR) donor templates. The sequences of gRNAs and ssODN templates are listed in Supplementary Table 2. Ribonucleoprotein (RNP) complexes with recombinant Streptococcus pyogenes Cas9 protein (IDT) and crRNA:tracrRNA duplex were assembled by incubating 100 pmol of Cas9 and 120 pmol of gRNA for 10–20 min at room temperature. HeLa (2 × 10^5) cells were resuspended in 10 μL of Neon^TM transfection system buffer R from the Neon^TM transfection system 10 mL kit (Thermo Fisher), and the RNP complex along with 100 pmol ssODN template were electroporated into HeLa cells with the Neon^TM transfection system (Thermo Fisher). After electroporation, HeLa cells were transferred to a 12-well plate for culturing. Edited pooled cells were analyzed for HiBiT insertion by assaying for luminescence using Nano-Glo® HiBiT lytic detection system (Cat #N3040, Promega) in a Biotek’s Synergy Neo2 multimode plate reader (Biotek) 48–72 h after electroporation and single clones were selected by serial dilution.
HeLa HiBiT-BCL-xL and HeLa HiBiT-BCL-2 cells (2 × 10^4/well in 80 μL DMEM) were seeded into white 96-well tissue culture plates and incubated overnight at 37 °C, 5% CO2. For dose curve testing, the following day, serial diluted compounds were added into the medium and then plates were incubated at 37 °C, 5% CO2, for 6 h. For time course testing, in the following day, compounds with indicated concentrations were added into the medium at different time points. After treatment, the luminescence signals were measured using Nano-Glo® HiBiT lytic detection system (Cat #N3040, Promega) in a Biotek’s Synergy Neo2 multimode plate reader (Biotek).
Background: HiBiT is a short tag that completes a luciferase, so light tracks the accessible tagged protein.

Another assay has as its target T2, WT BCL-xL (Homo sapiens, UniProt Q07817).
T2 construct: BCL-xL (aa 2-212) and BCL-2 (aa 1-207) transformed cells were grown in LB broth; SMT3 (N); made in house; host or cells: E. coli BL21 (DE3) codon plus
In words: AlphaScreen displacement binary binding assay, WT BCL-xL. The note with it: for Kd: Supplementary Fig. 11. Here is the method:
(§1) To test the binary/ternary binding affinities of compounds to BCL-2/BCL-xL, AlphaScreen displacement binding assay was performed to test the capabilities of testing compounds to displace a Biotin-tagged Bim (Biotin-[…]) or Bad (Biotin-[…]) from BCL-2 or BCL-xL for BCL-2 and BCL-xL binding affinities, respectively. All reagents were diluted in assay buffer of 25 mM HEPES, pH 7.5, 150 mM NaCl, 0.1% BSA, and 0.005% tween 20 prior incubation. To a 96-well PCR plate (VWR, Cat. No. 82006-636) was added 10 μL Biotin-tagged Bim (15 nM for WT or 50 nM for mutants) or Bad (15 nM for WT or 50 nM for mutants), 10 μL series diluted compounds solution (2 or 3 or 4× dilution), and 10 μL self-made 6×His tagged BCL-2 WT or mutants (25 nM WT or 50 nM mutants) or 10 μL self-made BCL-xL WT and mutants (10 nM WT or 50 nM mutants). After incubating at room temperature for 30 min, 5 µL of 160 μg/mL of anti-6×His acceptor beads (PerkinElmer, Cat. No. AL128M) was added and the mixture was incubated at room temperature for 15 min. 5 µL of 160 μg/mL of streptavidin donor beads (PerkinElmer, 6760002) was then added under subdued light and the mixture was incubated at dark for 30 min before being transferred to two adjacent wells (17 µL each) of 384-well white OptiPlate (PerkinElmer, Cat. No. 6008280). The luminescence signal was detected on a Biotek’s Synergy Neo2 multimode plate reader installed with an AphaScreen filter cube. The Ki values of each compounds were calculated by fitting data into the “Binding-competitive, One site-Fit Ki” function in GraphPad Prism (9.2.0) based on concentrations of Biotin–peptide used and experimentally determined Kd values of each 6×His protein &&&and Biotin–Peptide pair.
(In general: In Alpha technology, singlet oxygen from a donor bead excites a nearby acceptor bead.)

The target in a further assay is T3, WT BCL-2 (Homo sapiens, UniProt P10415).
T3 construct: BCL-xL (aa 2-212) and BCL-2 (aa 1-207) transformed cells were grown in LB broth; made in house; host or cells: E. coli BL21 (DE3) codon plus
T3 sequence (P10415 1-207): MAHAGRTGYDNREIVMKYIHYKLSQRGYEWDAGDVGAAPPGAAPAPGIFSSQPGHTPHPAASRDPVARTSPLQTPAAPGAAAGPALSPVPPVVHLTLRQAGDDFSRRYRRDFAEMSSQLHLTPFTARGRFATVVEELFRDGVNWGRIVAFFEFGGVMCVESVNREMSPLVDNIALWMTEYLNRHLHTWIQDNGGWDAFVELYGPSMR
The assay can be described thus: AlphaScreen displacement binary binding assay, WT BCL-2. The protocol:
as §1

Where [1] appears, read: mean ± s.d., n=3, read-out: Ki (nM, n=3), BCL-2 WT.
[2] abbreviates: response letter, Supplementary Fig. 11, read-out: Ki, binary complex with BCL-2.

T1 sequence (P10415 whole entry): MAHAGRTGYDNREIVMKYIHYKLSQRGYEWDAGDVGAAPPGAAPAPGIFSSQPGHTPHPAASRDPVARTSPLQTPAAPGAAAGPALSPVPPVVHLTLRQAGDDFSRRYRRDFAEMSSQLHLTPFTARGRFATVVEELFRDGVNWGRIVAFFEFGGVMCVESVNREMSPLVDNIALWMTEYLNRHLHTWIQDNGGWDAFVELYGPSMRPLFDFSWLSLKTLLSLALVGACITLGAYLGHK
T2 sequence (Q07817 2-212): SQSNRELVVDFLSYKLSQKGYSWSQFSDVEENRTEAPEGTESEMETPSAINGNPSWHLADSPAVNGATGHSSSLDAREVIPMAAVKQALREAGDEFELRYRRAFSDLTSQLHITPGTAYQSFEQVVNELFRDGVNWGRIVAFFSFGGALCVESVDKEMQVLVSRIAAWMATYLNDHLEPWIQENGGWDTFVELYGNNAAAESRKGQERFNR

With `Cc1ncsc1-c1ccc([C@H](C)NC(=O)[C@@H]2C[C@@H](O)CN2C(=O)[C@@H](NC(=O)CN2CCN(CC(=O)N3CCN(C[C@]4(C)CCC(c5ccc(Cl)cc5)=C(CN5CCN(c6ccc(C(=O)NS(=O)(=O)c7ccc(N[C@H](CCN8C[C@@H]9C[C@H]8CO9)CSc8ccccc8)c(S(=O)(=O)C(F)(F)F)c7)cc6)CC5)C4)CC3)CC2)C(C)(C)C)cc1` [WH244], at HiBiT-BCL-2, the “Time to degrade 50% of BCL-2” value is on record as “about 250 min”. In addition, at HiBiT-BCL-2 (6 h treatment), the “Potency for inducing degradation of BCL-2 (comparison)” value is “more potent than 753b”. The Kd at WT BCL-xL is ~6.14 nM; on WT BCL-2 (Supplementary Fig. 11), ~3.1 nM. The inhibition constant Ki on WT BCL-2 (setting [1]) amounted to 3.5 ± 0.5 nM; on WT BCL-2 (setting [2]), 3.1 nM.
With `Cc1ncsc1-c1ccc(C(C)NC(=O)C2CC(O)CN2C(=O)C(NC(=O)CCCCCCC(=O)N2CCN(CC3(C)CCC(c4ccc(Cl)cc4)=C(CN4CCN(c5ccc(C(=O)NS(=O)(=O)c6ccc(NC(CCN7CCOCC7)CSc7ccccc7)c(S(=O)(=O)C(F)(F)F)c6)cc5)CC4)C3)CC2)C(C)(C)C)cc1` (stereo not drawn) [753b], at HiBiT-BCL-2, the “Time to degrade 50% of BCL-2” value was > 480 min. In addition, the Kd on WT BCL-xL was ~28 nM; at WT BCL-2 (Supplementary Fig. 11) it was ~23.4 nM. In addition, the Ki on WT BCL-xL (mean ± s.d., n=3) was 21.9 ± 7.3 nM; at WT BCL-2 (setting [1]) it was 24.9 ± 5.4 nM; at WT BCL-2 (setting [2]) it was 23.4 nM.

For orientation: Kd means the free concentration of one partner at which half of the binding sites on the other are occupied at equilibrium, for simple one-to-one binding. What is called Ki is a measure of affinity in units of concentration, obtained from inhibition or displacement.
